Reference: PubChem BioAssay (NCI)
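Values below derive from 48-hour exposures of cells grown in 96-well plates, with endpoints linearly interpolated between the two concentrations bracketing the appropriate inhibition level. At the GI50, growth is halved. TGI denotes the concentration required for complete inhibition of growth.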

Key:
Experiment in all cases: inhibition of tumour cell growth, NCI panel, 48 h
NCI/ADR-RES ovarian = system: NCI/ADR-RES ovarian
HOP-92 NSCLC = system: HOP-92 NSCLC
M14 melanoma = system: M14 melanoma
CAKI-1 renal = system: CAKI-1 renal
NCI-H226 lung = system: NCI-H226 lung
NCI-H522 lung = system: NCI-H522 lung
SF-295 CNS = system: SF-295 CNS
OVCAR-5 ovarian = system: OVCAR-5 ovarian
LOX IMVI melanoma = system: LOX IMVI melanoma
SK-MEL-5 melanoma = system: SK-MEL-5 melanoma
RXF 393 renal = system: RXF 393 renal
MCF7 breast = system: MCF7 breast
UO-31 renal = system: UO-31 renal
COLO 205 colon = system: COLO 205 colon
MDA-MB-231 breast = system: MDA-MB-231 breast
UACC-62 melanoma = system: UACC-62 melanoma
IGROV1 ovarian = system: IGROV1 ovarian
PC-3 prostate = system: PC-3 prostate
HT29 colon = system: HT29 colon
ACHN renal = system: ACHN renal
SR leukemia = system: SR leukemia
CCRF-CEM leukemia = system: CCRF-CEM leukemia
SF-539 CNS = system: SF-539 CNS
HCT-116 colon = system: HCT-116 colon
786-0 renal = system: 786-0 renal
HOP-62 NSCLC = system: HOP-62 NSCLC
BT-549 breast = system: BT-549 breast
HL-60(TB) leukemia = system: HL-60(TB) leukemia
SNB-75 CNS = system: SNB-75 CNS
HCC-2998 colon = system: HCC-2998 colon
MDA-MB-435 = system: MDA-MB-435
OVCAR-3 ovarian = system: OVCAR-3 ovarian
KM12 colon = system: KM12 colon
T-47D breast = system: T-47D breast
SK-OV-3 ovarian = system: SK-OV-3 ovarian
DU-145 prostate = system: DU-145 prostate
OVCAR-8 ovarian = system: OVCAR-8 ovarian
HCT-15 colon = system: HCT-15 colon
UACC-257 melanoma = system: UACC-257 melanoma
SF-268 CNS = system: SF-268 CNS
MOLT-4 leukemia = system: MOLT-4 leukemia
A549 NSCLC = system: A549 NSCLC
NCI-H460 lung = system: NCI-H460 lung
OVCAR-4 ovarian = system: OVCAR-4 ovarian
SNB-19 CNS = system: SNB-19 CNS
HS 578T breast = system: HS 578T breast
U251 CNS = system: U251 CNS
NCI-H23 lung = system: NCI-H23 lung
SW-620 colon = system: SW-620 colon
SK-MEL-28 melanoma = system: SK-MEL-28 melanoma
K-562 leukemia = system: K-562 leukemia
EKVX NSCLC = system: EKVX NSCLC
TK-10 renal = system: TK-10 renal
A498 renal = system: A498 renal
SN12C renal = system: SN12C renal
RPMI-8226 leukemia = system: RPMI-8226 leukemia
SK-MEL-2 melanoma = system: SK-MEL-2 melanoma
MALME-3M melanoma = system: MALME-3M melanoma

## CCc1ccc(COC(=O)C2=C(C)NC(C)=C(C(=O)OCc3ccc(CC)cn3)C2C2=COCCO2)nc1
NCI/ADR-RES ovarian
  TGI: 63.4 µM
HOP-92 NSCLC
  TGI: 43 µM
M14 melanoma
  TGI: 31.1 µM
CAKI-1 renal
  TGI: 88.5 µM
NCI-H226 lung
  TGI: 40 µM
NCI-H522 lung
  TGI: 40.7 µM
SF-295 CNS
  TGI: 61.3 µM
OVCAR-5 ovarian
  TGI: 69.3 µM
LOX IMVI melanoma
  TGI: 29.1 µM
SK-MEL-5 melanoma
  TGI: 26.1 µM
RXF 393 renal
  TGI: 37.3 µM
MCF7 breast
  TGI: 43 µM
UO-31 renal
  TGI: 60.4 µM
COLO 205 colon
  TGI: 29.6 µM
MDA-MB-231 breast
  TGI: 45.8 µM
UACC-62 melanoma
  TGI: 36.7 µM
IGROV1 ovarian
  TGI: > 100 µM
PC-3 prostate
  TGI: 43.1 µM
HT29 colon
  TGI: 43.7 µM
ACHN renal
  TGI: 89.7 µM
SR leukemia
  TGI: > 100 µM
CCRF-CEM leukemia
  TGI: 49.8 µM
SF-539 CNS
  TGI: 27.7 µM
HCT-116 colon
  TGI: 31 µM
786-0 renal
  TGI: 69.4 µM
HOP-62 NSCLC
  TGI: 37.8 µM
BT-549 breast
  TGI: 31.1 µM
HL-60(TB) leukemia
  TGI: 66.7 µM
SNB-75 CNS
  TGI: 39.3 µM
HCC-2998 colon
  TGI: 37.7 µM
MDA-MB-435
  TGI: 38.3 µM
OVCAR-3 ovarian
  TGI: 54.7 µM
KM12 colon
  TGI: 87.1 µM
T-47D breast
  TGI: 36.1 µM
SK-OV-3 ovarian
  TGI: 45.8 µM
DU-145 prostate
  TGI: > 100 µM
OVCAR-8 ovarian
  TGI: > 100 µM
HCT-15 colon
  TGI: 71.4 µM
UACC-257 melanoma
  TGI: 41.5 µM
SF-268 CNS
  TGI: > 100 µM
MOLT-4 leukemia
  TGI: 33.6 µM
A549 NSCLC
  TGI: > 100 µM
NCI-H460 lung
  TGI: 91.3 µM
OVCAR-4 ovarian
  TGI: 66.9 µM
SNB-19 CNS
  TGI: 54.5 µM
HS 578T breast
  TGI: 37.7 µM
U251 CNS
  TGI: 35.4 µM
NCI-H23 lung
  TGI: 51 µM
SW-620 colon
  TGI: 80.4 µM
SK-MEL-28 melanoma
  TGI: 35 µM
K-562 leukemia
  TGI: 53.7 µM
EKVX NSCLC
  TGI: 65.1 µM
TK-10 renal
  TGI: > 100 µM

## N#Cc1cnc(Nc2cc(NC[C@H]3CNCCO3)c(C(F)(F)F)cn2)cn1
A498 renal
  GI50: 0.462 µM
  TGI: 18 µM
NCI/ADR-RES ovarian
  GI50: 1.73 µM
  TGI: 84.5 µM
HOP-92 NSCLC
  GI50: 8.95 µM
  TGI: 26.6 µM
M14 melanoma
  GI50: 0.388 µM
  TGI: 16.7 µM
NCI-H226 lung
  GI50: 22.4 µM
  TGI: 85.3 µM
NCI-H522 lung
  GI50: 13.1 µM
  TGI: 34.9 µM
SF-295 CNS
  GI50: 0.525 µM
  TGI: > 100 µM
OVCAR-5 ovarian
  GI50: 9.37 µM
  TGI: 67.1 µM
LOX IMVI melanoma
  GI50: 7.15 µM
  TGI: 24.2 µM
SK-MEL-5 melanoma
  GI50: 9.3 µM
  TGI: 21.6 µM
RXF 393 renal
  GI50: 0.858 µM
  TGI: 18.2 µM
MCF7 breast
  GI50: 0.639 µM
  TGI: 23 µM
UO-31 renal
  GI50: 5.49 µM
  TGI: 69.2 µM
COLO 205 colon
  GI50: 9.61 µM
  TGI: 23.6 µM
SN12C renal
  GI50: 17.7 µM
  TGI: 83 µM
MDA-MB-231 breast
  GI50: 13.1 µM
  TGI: 47 µM
UACC-62 melanoma
  GI50: 5.17 µM
  TGI: 25.1 µM
IGROV1 ovarian
  GI50: 5.57 µM
  TGI: 70.6 µM
PC-3 prostate
  GI50: 21.1 µM
  TGI: 87.5 µM
HT29 colon
  GI50: 25.7 µM
  TGI: 92 µM
SR leukemia
  GI50: 0.64 µM
  TGI: 24 µM
CCRF-CEM leukemia
  GI50: 0.8 µM
  TGI: > 100 µM
SF-539 CNS
  GI50: 0.669 µM
  TGI: 17.3 µM
HCT-116 colon
  GI50: 23.3 µM
  TGI: > 100 µM
786-0 renal
  GI50: 0.668 µM
  TGI: 29 µM
HOP-62 NSCLC
  GI50: 6.54 µM
  TGI: 36.8 µM
BT-549 breast
  GI50: 5.62 µM
  TGI: 32 µM
HL-60(TB) leukemia
  GI50: 2.15 µM
  TGI: 15.4 µM
SNB-75 CNS
  GI50: 11.5 µM
  TGI: 28.1 µM
HCC-2998 colon
  GI50: 6.84 µM
  TGI: 30.2 µM
MDA-MB-435
  GI50: 3.56 µM
  TGI: 27.2 µM
OVCAR-3 ovarian
  GI50: 13.3 µM
  TGI: 48.3 µM
KM12 colon
  GI50: 11.4 µM
  TGI: 88.4 µM
T-47D breast
  GI50: 16.6 µM
  TGI: 51.5 µM
SK-OV-3 ovarian
  GI50: 3.62 µM
  TGI: 38.9 µM
DU-145 prostate
  GI50: 8.07 µM
  TGI: 40.2 µM
OVCAR-8 ovarian
  GI50: 3.69 µM
  TGI: 93 µM
RPMI-8226 leukemia
  GI50: 15.7 µM
  TGI: 56.3 µM
HCT-15 colon
  GI50: 11 µM
  TGI: > 100 µM
UACC-257 melanoma
  GI50: 19.3 µM
  TGI: 45.8 µM
SK-MEL-2 melanoma
  GI50: 12.6 µM
  TGI: 34.7 µM
SF-268 CNS
  GI50: 16.2 µM
  TGI: 47.5 µM
MOLT-4 leukemia
  GI50: 3.61 µM
  TGI: 55.2 µM
A549 NSCLC
  GI50: 20.6 µM
  TGI: > 100 µM
NCI-H460 lung
  GI50: 13.4 µM
  TGI: 38.3 µM
OVCAR-4 ovarian
  GI50: 10.5 µM
  TGI: 82.7 µM
SNB-19 CNS
  GI50: 9.67 µM
  TGI: > 100 µM
HS 578T breast
  GI50: 0.882 µM
  TGI: 60.3 µM
U251 CNS
  GI50: 21.8 µM
  TGI: 73 µM
NCI-H23 lung
  GI50: 0.791 µM
  TGI: 26.8 µM
SW-620 colon
  GI50: 18.1 µM
  TGI: 73.8 µM
SK-MEL-28 melanoma
  GI50: 16.3 µM
  TGI: 46.5 µM
MALME-3M melanoma
  GI50: 10.4 µM
  TGI: 27.8 µM
K-562 leukemia
  GI50: 3.19 µM
  TGI: 22.1 µM
EKVX NSCLC
  GI50: 17.5 µM
  TGI: 59.4 µM
TK-10 renal
  GI50: 3.66 µM
  TGI: 36 µM
